# Measured values published in a melting point compilation (Tetko et al.; mined from patent text by program, amines drawn as free bases though some values may be those of a salt).
row,SMILES,melting point [°C]
1,CCCc1cc(Cl)c2oc(-c3ccccc3)c(C)c2c1O,102 to 104
2,O=C1CC(O)CC(/C=C/c2c(Cl)cc(Cl)cc2OCc2ccccc2)O1 (stereo unspecified),109 to 112
3,Cc1sc(C)c2c1CCC=C2c1c[nH]cn1,179 to 180
4,CC(C)(C)c1ccc2c(c1)cc(-c1ccccc1)n2-c1ccc(O)c(C(=O)O)c1,271 to 273
5,C=CCc1cc(Cl)c2ccccc2c1O,55 to 57
6,CSc1c(OCC(=O)O)ccc2c3ccccc3n(Cc3ccccc3)c12,188 to 189
7,CN(C)C(C)(O)CC12CCC(c3ccccc31)c1ccccc12 (stereo unspecified),118 to 121
8,CC(=O)Nc1ccc(C=CC2=NNC(=O)CC2C)cc1 (stereo unspecified),206 to 207
9,O=c1oc(=Cc2ccccc2)c(=Cc2ccccc2)o1,115
10,COC(=O)c1nc2cc(Cl)c(OC)c(Cl)c2c(O)c1C(=O)OC,210 to 211
11,COC(=O)CCc1cc2nc(Cl)ccc2n1S(=O)(=O)c1ccc2nc(N)sc2c1,205 to 215
12,CC(C)C(=O)Nc1cccn1C,122 to 124
13,CCN1C(=O)c2cccnc2Nc2cccc(C)c21,186 to 188
14,Cc1ccc(C2C=C3C(=CCC4=C3NN(C)CC4)S2=O)cc1 (stereo unspecified),160 to 162
15,CCn1c(N)c(-c2ncc[nH]2)c(=O)c2ccc(-c3ccc(CC(=O)NCc4ccncc4)nc3)nc21,120
16,CCCCCCc1ncc(/C=C(\Cc2cccs2)C(=O)O)n1Cc1ccc(C(=O)O)cc1,210 to 212
17,COc1ccc2c3c1OC1CC(O)C=CC31CCN(C(=O)Nc1ccccc1)C2 (stereo unspecified),198 to 199
18,Cn1c2ccccc2c2c3ccc(Cl)cc3c(=O)[nH]c21,> 310
19,Cc1cccc(C(=O)Nc2c[nH]nc2C(=O)NCC(F)(F)F)n1,257 to 258
20,OCC(O)CN1CCN(C(c2ccccc2)c2ccccc2)CC1 (stereo unspecified),125 to 126
21,C=C1CC(Cn2cc(C)c(=O)[nH]c2=O)(c2ccc(Cl)cc2)OC1=O (stereo unspecified),188 to 189

row,SMILES,melting point [°C]
1,Fc1ccc2c(CN3CCN(CCc4ccccc4)CC3)n[nH]c2c1,148 to 149
2,c1ccc(N=C2N=C(c3ccccc3)N=C2Nc2ccccc2)cc1,201
3,O=C1CCC(c2ccccc2)(c2ccccc2)C2CN(C(Cc3ccccc3)=NCc3ccccc3F)CC12 (stereo unspecified),160
4,CCCCCCCCOc1cnc(-c2ccc(OC(=O)[C@H]3CCCO3)cc2)nc1,90
5,CCCCCCCCCCSCCCN=C=O,89 to 92
6,CCOC(=O)c1nc(-c2cccnc2)[nH]c1N=NN(C)C,125
7,Nc1nc2c(sc(=O)n2CC(O)CO)c(=O)[nH]1 (stereo unspecified),248 to 254
8,O=S(=O)(c1ccccc1)N1CCC(C(NCCc2ccccc2)c2ccc(F)cc2)CC1 (stereo unspecified),115 to 117
9,c1ccc(COc2c(-c3ccccc3)n[nH]c2-c2ccccc2)cc1,152
10,N#Cc1cc2ccc(O)cc2s1,195 to 198
11,ClCc1coc(-c2ccc(OCc3ccccc3)cc2)n1,119 to 120
12,"CC1CNc2c(ccc(NC3=NCCN3)c2Br)N1 (single isomer, unassigned; (+))",203 to 205
13,CCOC(=O)c1ccc(CCN2CCN(C(=O)CCc3cc(C(C)(C)C)c(O)c(C(C)(C)C)c3)CC2)cc1,105 to 107
14,CC(C)(C)OC(=O)NOC(=O)OC(C)(C)C,52
15,Oc1ccc2c(c1)CCCC(c1ccccc1)=C2c1ccc(OCCCCSCCCC(F)(F)C(F)(F)F)cc1,167
16,CC(=O)N1CCN(CCc2ccc(-c3cccc(N)n3)cc2)CC1,201 to 203
17,CC(C)(C)OC(=O)C=Cc1ccc(NC(=O)C=C2CC(C(=O)OCc3ccccc3)Nc3cc(Cl)cc(Cl)c32)cc1 (racemic),85
18,CC(C)C(=O)Nc1nsnc1-c1c(Cl)cccc1Cl,112 to 117
19,O=[N+]([O-])c1ccc(SNCCO)c(C(Cl)(Cl)Cl)c1,85
20,CN1CC(OC(c2ccccc2)c2ccccc2)C1,44 to 48
